Test results taken from PubChem BioAssay (NCI).
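Five concentrations, 48 hours, 96-well plates. Abbreviation: GI50, concentration required for 50% inhibition of growth. Definition used: TGI = concentration required for complete inhibition of growth.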

Experiments:
Assay in all cases: NCI anticancer screen, dose series, 48 h
SNB-75 CNS = tested on: SNB-75 CNS
SW-620 colon = tested on: SW-620 colon
CAKI-1 renal = tested on: CAKI-1 renal
TK-10 renal = tested on: TK-10 renal
A549 NSCLC = tested on: A549 NSCLC
RPMI-8226 leukemia = tested on: RPMI-8226 leukemia
786-0 renal = tested on: 786-0 renal
SK-OV-3 ovarian = tested on: SK-OV-3 ovarian
SK-MEL-28 melanoma = tested on: SK-MEL-28 melanoma
CCRF-CEM leukemia = tested on: CCRF-CEM leukemia

| SMILES | TGI (SNB-75 CNS) [µM] | TGI (SW-620 colon) [µM] | TGI (CAKI-1 renal) [µM] | TGI (TK-10 renal) [µM] | TGI (A549 NSCLC) [µM] | TGI (RPMI-8226 leukemia) [µM] | TGI (786-0 renal) [µM] | TGI (SK-OV-3 ovarian) [µM] | TGI (SK-MEL-28 melanoma) [µM] | TGI (CCRF-CEM leukemia) [µM] | GI50 (SNB-75 CNS) [µM] | GI50 (SW-620 colon) [µM] | GI50 (CAKI-1 renal) [µM] | GI50 (TK-10 renal) [µM] | GI50 (A549 NSCLC) [µM] | GI50 (RPMI-8226 leukemia) [µM] | GI50 (786-0 renal) [µM] | GI50 (SK-OV-3 ovarian) [µM] | GI50 (SK-MEL-28 melanoma) [µM] | GI50 (CCRF-CEM leukemia) [µM] |
| --- | --- | --- | --- | --- | --- | --- | --- | --- | --- | --- | --- | --- | --- | --- | --- | --- | --- | --- | --- | --- |
| CCCCCCCCCC[C@@H](O)[C@@H]1CC[C@H]([C@H]2CC[C@@H]([C@@H](O)CCCCCCCCCC[C@H]3CC(CC(C)=O)C(=O)O3)O2)O1 (stereo not given in full) | 26.9 | 38 | 75.8 | 32.8 | 30.6 | 15.4 | 28.5 | 34.1 | 24.4 | 33.4 | – | – | – | – | – | – | – | – | – | – |
| N#Cc1ccc(C#Cc2ccccc2C#CCCCCO)cc1 | > 100 | 35 | 39.8 | 33.5 | 27.9 | 44.1 | 18.1 | 33.5 | 53.7 | 29.1 | 42.2 | 17.4 | 21 | 16.5 | 14.4 | 20.6 | 4.39 | 18.2 | 25.6 | 14.8 |
| Cn1c(N2NC(=O)C(N=Nc3ccc(S(N)(=O)=O)cc3)C2=O)nc(-c2ccco2)c(C#N)c1=O (stereo not given) | > 50 | 28.6 | > 50 | 33.5 | > 50 | 30.2 | > 50 | > 50 | 45.5 | > 50 | 39.2 | 9.23 | 11.9 | 8.64 | > 50 | 4.98 | > 50 | > 50 | 11.7 | 8.63 |
